Patent US8431514B2, “4-cyano-3-benzoylamino-N-phenyl-benzamides for use in pest control” (Syngenta Crop Protection LLC, priority 2009, dated 2013)

Assays:
Type in all cases: in vivo
Spodoptera littoralis = Spodoptera littoralis (Egyptian cotton leafworm) leaf disc spray test; conditions: foliar, 72 h, application rate 200 ppm, cotton leaf discs, 5 L1 larvae, mortality, feeding behavior and growth regulation 3 days after treatment
Description: (§1) These Examples illustrate the insecticidal and acaricidal properties of the compounds of formula (I). The tests were performed as follows:
(§2) Cotton leaf discs were placed on agar in a 24-well microtiter plate and sprayed with test solutions at an application rate of 200 ppm. After drying, the leaf discs were infested with 5 L1 larvae. The samples were checked for mortality, feeding behavior, and growth regulation 3 days after treatment (DAT). The following compound gave at least 80% control of Spodoptera littoralis: A1, A2, A3, A4, A5, A6, A7, A8, A9, A10, A11, A12, A14, A15, A16, A17, A18, A19, A20. Heliothis Virescens (Tobacco Budworm): Eggs (0-24 h old) were placed in 24-well microtiter plate on artificial diet and treated with test solutions at an application rate of 200 ppm (concentration in well 18 ppm) by pipetting. After an incubation period of 4 days, samples were checked for egg mortality, larval mortality, and growth regulation. The following compound gave at least 80% control of Heliothis virescens: A1, A2, A3, A4, A5, A6, A7, A8, A9, A10, A11, A12, A14, A15, A16, A17, A18, A19, A20. Plutella Xylostella (Diamond Back Moth): 24-well microtiter plate (MTP) with artificial diet was treated with test solutions at an application rate of 200 ppm (concentration in well 18 ppm) by pipetting. After drying, the MTP's were infested with L2 larvae (7-12 per well). After an incubation period of 6 days, samples were checked for larval mortality and growth regulation. The following compound gave at least 80% control of Plutella xylostella: A1, A2, A3, A4, A5, A6, A7, A8, A9, A10, A11, A12, A13, A14, A15, A16, A17, A18, A19, A20. Diabrotica Balteata (Corn Root Worm): A 24-well microtiter plate (MTP) with artificial diet was treated with test solutions at an application rate of 200 ppm (concentration in well 18 ppm) by pipetting. After drying, the MTP's were infested with L2 larvae (6-10 per well). After an incubation period of 5 days, samples were checked for larval mortality and growth regulation. The following compound gave at least 80% control of Diabrotica balteata: A1, A2, A3, A4, A5, A6, A7, A8, A9, A10, A11, A12, A13, A14, A16, A17, A18, A19, A20. Thrips Tabaci (Onion Thrips): Sunflower leaf discs were placed on agar in a 24-well microtiter plate and sprayed with test solutions at an application rate of 200 ppm. After drying, the leaf discs were infested with an […] population of mixed ages. After an incubation period of 7 days, samples were checked for mortality. The following compounds gave at least 80% control of Thrips tabaci: A1, A2, A3, A4, A5, A6, A7, A8, A9, A10, A14, A16, A17, A18, A19, A20. Tetranychus Urticae (Two-Spotted Spider Mite): Bean leaf discs on agar in 24-well microtiter plates were sprayed with test solutions at an application rate of 200 ppm. After drying, the leaf discs are infested with mite populations of mixed ages. 8 days later, discs are checked for egg mortality, larval mortality, and adult mortality. The following compounds gave at least 80% control of Tetranychus urticae: A1, A2, A3, A4, A5, A6, A7, A8, A9, A10, A11, A12, A13, A14, A15, A16, A17, A19, A20.

Heliothis virescens = Heliothis virescens (tobacco budworm) egg test on artificial diet; conditions: 96 h, application rate 200 ppm (concentration in well 18 ppm), eggs 0-24 h old on artificial diet, egg mortality, larval mortality and growth regulation after 4 days
Description: as §1, §2

Plutella xylostella = Plutella xylostella (diamond back moth) artificial diet test; conditions: 144 h, application rate 200 ppm (concentration in well 18 ppm), L2 larvae, larval mortality and growth regulation after 6 days
Description: as §1, §2

Diabrotica balteata = Diabrotica balteata (corn root worm) artificial diet test; conditions: 120 h, application rate 200 ppm (concentration in well 18 ppm), L2 larvae, larval mortality and growth regulation after 5 days
Description: as §1, §2

Thrips tabaci = Thrips tabaci (onion thrips) sunflower leaf disc spray test; conditions: foliar, 168 h, application rate 200 ppm, sunflower leaf discs, population of mixed ages, mortality after 7 days
Description: as §1, §2

Tetranychus urticae = Tetranychus urticae (two-spotted spider mite) bean leaf disc spray test; conditions: foliar, 192 h, application rate 200 ppm, bean leaf discs, mite populations of mixed ages, egg, larval and adult mortality 8 days later, read-out: control of Tetranychus urticae
Description: as §1, §2

Measured: pest or weed control at 200 ppm

CCc1cc(C(F)(C(F)(F)F)C(F)(F)C(F)(F)F)cc(C)c1NC(=O)c1ccc(C#N)c(NC(=O)c2ccc(C#N)cc2C)c1 (stereo not shown) [A1, 4-cyano-3-(4′-cyano-2′-methylbenzoylamino)-N-[2-ethyl-6-methyl-4-(1,2,2,3,3,3-hexafluoro-1-trifluoromethylpropyl)phenyl]benzamide]
≥ 80%: all assays above

Cc1cc(C#N)ccc1C(=O)Nc1cc(C(=O)Nc2c(Cl)cc(C(F)(C(F)(F)F)C(F)(F)C(F)(F)F)cc2Br)ccc1C#N (stereo not shown) [A2, N-[2-bromo-6-chloro-4-(1,2,2,3,3,3-hexafluoro-1-trifluoromethylpropyl)-phenyl]-4-cyano-3-(4′-cyano-2′-methylbenzoylamino)benzamide]
≥ 80%: all assays above

Cc1cc(C#N)ccc1C(=O)Nc1cc(C(=O)Nc2c(Br)cc(C(F)(C(F)(F)F)C(F)(F)F)cc2Br)ccc1C#N [A3, 4-cyano-3-(4′-cyano-2′-methylbenzoylamino)-N-[2,6-dibromo-4-(1,2,2,2-tetrafluoro-1-trifluoromethylethyl)phenyl]benzamide]
≥ 80%: all assays above

Cc1cc(C#N)ccc1C(=O)Nc1cc(C(=O)Nc2c(Br)cc(C(F)(C(F)(F)F)C(F)(F)C(F)(F)F)cc2Br)ccc1C#N (stereo not shown) [A4, 4-cyano-3-(4′-cyano-2′-methylbenzoylamino)-N-[2,6-dibromo-4-(1,2,2,3,3,3-hexafluoro-1-trifluoromethylpropyl)phenyl]benzamide]
≥ 80%: all assays above

CCc1cc(C(F)(C(F)(F)F)C(F)(F)C(F)(F)F)cc(Br)c1NC(=O)c1ccc(C#N)c(NC(=O)c2ccc(C#N)cc2C)c1 (stereo not shown) [A5, N-[2-bromo-6-ethyl-4-(1,2,2,3,3,3-hexafluoro-1-trifluoromethylpropyl)-phenyl]-4-cyano-3-(4′-cyano-2′-methylbenzoylamino)benzamide]
≥ 80%: all assays above

Cc1cc(C#N)ccc1C(=O)Nc1c(C#N)ccc(C(=O)Nc2c(Cl)cc(C(F)(C(F)(F)F)C(F)(F)C(F)(F)F)cc2Br)c1F (stereo not shown) [A6, N-[2-bromo-6-chloro-4-(1,2,2,3,3,3-hexafluoro-1-trifluoromethylpropyl)-phenyl]-4-cyano-3-(4′-cyano-2′-methylbenzoylamino)-2-fluorobenzamide]
≥ 80%: all assays above

Cc1cc(C#N)ccc1C(=O)Nc1cc(C(=O)Nc2c(Cl)cc(C(F)(C(F)(F)F)C(F)(F)C(F)(F)F)cc2C#N)ccc1C#N (stereo not shown) [A7, N-[2-chloro-6-cyano-4-(1,2,2,3,3,3-hexafluoro-1-trifluoromethylpropyl)-phenyl]-4-cyano-3-(4′-cyano-2′-methylbenzoylamino)benzamide]
≥ 80%: all assays above

COc1cc(C(F)(C(F)(F)F)C(F)(F)C(F)(F)F)cc(C)c1NC(=O)c1ccc(C#N)c(NC(=O)c2ccc(C#N)cc2C)c1 (stereo not shown) [A11, 4-cyano-3-(4′-cyano-2′-methylbenzoylamino)-N-[2-methoxy-6-methyl-4-(1,2,2,3,3,3-hexafluoro-1-trifluoromethylpropyl)phenyl]benzamide]
not listed: Thrips tabaci
≥ 80%: all other assays above

Cc1cc(C#N)ccc1C(=O)Nc1cc(C(=O)Nc2c(Cl)cc(C(OC(=O)c3ccccc3)(C(F)(F)F)C(F)(F)F)cc2Br)ccc1C#N [A12, benzoic acid 1-{3-bromo-5-chloro-4-[4-cyano-3-(4-cyano-2-methyl-benzoylamino)benzoylamino]phenyl}-2,2,2-trifluoro-1-trifluoromethylethyl ester]
not listed: Thrips tabaci
≥ 80%: all other assays above

Cc1cc(C#N)ccc1C(=O)Nc1cc(C(=O)Nc2c(Cl)cc(C(O)(C(F)(F)F)C(F)(F)F)cc2Br)ccc1C#N [A13, N-[2-bromo-6-chloro-4-[1,1,1,3,3,3-hexafluoropropan-2-ol)phenyl]-4-cyano-3-(4′-cyano-2′-methylbenzoylamino)benzamide]
≥ 80%: Plutella xylostella | Diabrotica balteata | Tetranychus urticae

CCc1cc(C(O)(C(F)(F)F)C(F)(F)C(F)(F)F)cc(C)c1NC(=O)c1ccc(C#N)c(NC(=O)c2ccc(C#N)cc2C)c1 (stereo not shown) [A15, 4-cyano-3-(4′-cyano-2′-methyl-benzoylamino)-N-[2-ethyl-6-methyl-4-(2,2,3,3,3-pentafluoro-1-hydroxy-1-trifluoromethylpropyl)phenyl]benzamide]
≥ 80%: Spodoptera littoralis | Heliothis virescens | Plutella xylostella | Tetranychus urticae

Cc1cc(C#N)ccc1C(=O)Nc1c(C#N)ccc(C(=O)Nc2c(Cl)cc(C(F)(C(F)(F)F)C(F)(F)C(F)(F)F)cc2Cl)c1F (stereo not shown) [A18, 4-cyano-3-(4′-cyano-2′-methylbenzoylamino)-N-[2,6-dichloro-4-(1,2,2,3,3,3-hexafluoro-1-trifluoromethylpropyl)phenyl]-2-fluorobenzamide]
not listed: Tetranychus urticae
≥ 80%: all other assays above
